Target: human A2AR (Homo sapiens, UniProt P29274)
Experiment: radioligand displacement, [3H]ZM241385
Assay type: binding
Details: […] [3H]ZMA; […] Tris/HCl pH […]; […] min; CHO K1 membranes

Chain of human A2AR (P29274 whole entry): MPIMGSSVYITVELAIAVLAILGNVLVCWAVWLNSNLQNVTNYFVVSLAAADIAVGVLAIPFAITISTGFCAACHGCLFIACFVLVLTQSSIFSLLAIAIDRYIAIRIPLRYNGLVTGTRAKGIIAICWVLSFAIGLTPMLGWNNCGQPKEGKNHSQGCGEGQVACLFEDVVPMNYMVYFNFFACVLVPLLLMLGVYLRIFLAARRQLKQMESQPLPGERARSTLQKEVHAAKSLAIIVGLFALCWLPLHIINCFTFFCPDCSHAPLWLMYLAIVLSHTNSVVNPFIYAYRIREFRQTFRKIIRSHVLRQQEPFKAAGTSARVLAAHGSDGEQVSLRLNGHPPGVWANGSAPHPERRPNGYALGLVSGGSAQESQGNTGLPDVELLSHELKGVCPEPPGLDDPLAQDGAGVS

SMILES: N#Cc1c(NC(=O)Cn2c(=O)oc3ccccc32)oc(-c2ccccc2)c1-c1ccccc1 [JG-10]
- Ki: 310 ± 23.4 nM

From paper doi:10.1101/2023.03.31.535043v1 (biorxiv, 2023)
